Experimental data from patent US20230172950A1 (priority 2020, published 2023).

Tests used:
Whole Blood = assay: Ex vivo whole blood incubation (Study 6), immune cell counts; type: cell-based; conditions: concentrations between 100 uM up to 500 uM
Experimental: (§1) The profound in vivo activity that we observe in naïve mice and in cancer models must be mediated through the mobilized supercharged Natural Killer T cells, T cells and dendritic cells after AVM0703 HED 6 mg/kg and higher.

Splenocytes = assay: Ex vivo splenocyte incubation (Study 24), viability by flow cytometry; type: cell-based; conditions: concentrations between 100 uM up to 500 uM
Experimental: as §1
Splenocytes were cultured for 16 hours prior to assay execution.

[1] = tested on: lymphocytes, monocytes, NKT cells, T cells, dendritic cells; conditions: in vivo, HED of 18 mg/kg and higher
[2] = in vivo; cited from earlier work

Compound	response of ex vivo whole blood (Whole Blood)	response of isolated splenocytes (Splenocytes)	effects on colon, pancreas or bone [1]	biologic half-life [2]
C[C@@H]1C[C@H]2[C@@H]3CCC4=CC(=O)C=C[C@]4(C)[C@@]3(F)[C@@H](O)C[C@]2(C)[C@@]1(O)C(=O)CO [dexamethasone base, dexamethasone]	no response	no response	no effects	
C[C@]12C=CC(=O)C=C1CC[C@@H]1[C@@H]2C(=O)C[C@@]2(C)[C@H]1CC[C@]2(O)C(=O)CO [prednisone]				about 20 hours
